We go through 1 substance from patent publication US5908828A, “Synthetic peptide derivatives and the salts thereof” (Hoechst Japan Limited, priority 1994, dated 1999).

Bridge positions count the residues as written; N and C are the ends. Ends that are not written are not given here. I, II: the chains in the order shown.

This assay has as its system ALPase activity in MC3T3-E1 cells promoted by rh-BMP-2. Briefly: Assay of BMP inhibiting activity (BMP-2 antagonist-like activity): ALPase activity in cultured MC3T3-E1 cells. Particulars: for ALPase activity: MC3T3-E1 cells, 2 days. It is filed as cell-based, mouse. The procedure:
BMP-2 antagonist-like activity of the present synthetic peptide derivatives was assayed by way of cultured MC3T3-E1 cells which were established from mouse calvaria having osteoblast-like property, by Kodama et al. (Kodama, H. et al. (1981) Jpn. J Oral. Biol., vol.23, p.899). The cultured MC3T3-E1 cells were prepared according to Takuwa et al. (Takuwa, Y. et al., (1991) Biochem.
Biophys. Res. Comuni., vol. […] ALPase is often used as an indicator enzyme for differentiation and maturity of osteoblasts and chondrocytes (Pfeilschifter, J., et al., Endocrinology (1987), vol. 121, p212-218; Rodan, G. A., et al., calcium regulating hormones and bone metabolism, Elsevir Science Publishers B.V., (1992), p 183-196).

In the case of “synthetic peptide derivative: Fragment P1 (SEQ ID NO:1, N-terminal acetyl-Cys) joined to Fragment P2 (SEQ ID NO:2) through a 4-(N-maleimidomethyl)cyclohexane-1-carbonyl linker (chain 1 {CH2CO}-CDFSDVGWNDWIVAPPGY; chain 2 AIVQTLVNSVNSKIPKA; thioether I:N-II:N via 4‑(N-maleimidomethyl)cyclohexane‑1‑carbonyl; not fully specified (N-terminus, C-terminus, bridges))”, the “inhibition of rh-BMP-2-promoted ALPase activity in MC3T3-E1 cells” value (2×10^-9 to 2×10^-6 M, result in words) is on record as “inhibited ALPase activity in MC3T3-E1 cells which were promoted by rh-BMP-2 with 2×10^-9 to 2×10^-6 M dose dependently”. Further, the ALPase activity (rh-BMP-2 5 ng/ml + synthetic peptide derivative 2 × 10^-7 M, n = 4) came out at 302 ± 54 pmol/min; the ALPase activity (rh-BMP-2 5 ng/ml + synthetic peptide derivative 2 × 10^-8 M, n = 4) was 486 ± 36 pmol/min; the ALPase activity (rh-BMP-2 5 ng/ml + synthetic peptide derivative 2 × 10^-9 M, n = 4) is 632 ± 71 pmol/min; the ALPase activity (rh-BMP-2 5 ng/ml + synthetic peptide derivative 2 × 10^-10 M, n = 4) was 876 ± 120 pmol/min; the ALPase activity (rh-BMP-2 (b ng/ml) + synthetic peptide derivative 2 × 10^-6 M, n = 1) is 269 pmol/min.
